Measured values: US20050038035A1, “Heterocyclic amide compounds as apolipoprotein b inhibitors” (priority 2001, published 2005)

Assays:
Apo B secretion = assay: Test 1: Measurement of Inhibition of Apo B Secretion (HepG2 cells, ELISA of medium); format: cell-based; conditions: Homo sapiens, 10^−8 M test compound, 15-hour incubation, 0.1% DMSO treated cells as controls
Experimental: HepG2 cells were seeded in Eagles medium containing 10% fetal calf serum (FCS) at a density of 30000 cells/well in 96-well plates and allowed to grow for 3 days before treatment. At this time, the medium was replaced with fresh medium containing 0.1% dimethyl sulfoxide (DMSO) and the indicated concentrations of a test compound. After 15-hour incubation, the amount of Apo B and Apo AI accumulated in the media was determined by ELISA.
The assay was carried out at ambient temperature. A flat bottomed micro ELISA plate (manufactured by Nunc) was coated with an anti Apo B monoclonal antibody solution ([…] in 0.05% carbonate buffer, pH 9.6).by adding the antibody solution at a volume of 100 μl per well. After 1-hour incubation on a plate mixer, the unbound materials were removed by washing the well 3 times with a washing buffer (phosphate buffered saline, pH 7.2 containing 0.1% bovine serum albumin and 0.05% Tween-20). Then 20 μl of […] and 100 μl of a solution of peroxidase coupled anti Apo B antibody were added. After 1-hour incubation on a plate mixer, washing was performed 3 times to remove the unbound materials. A freshly prepared substrate solution (2.5 mg/ml ortho-phenylene diamine and 0.018% H2O2 in 0.11 M Na2HPO4-0.044 M sodium citrate buffer, pH 5.4) at a volume of 200 μl was then added to each well. After 20-minute incubation, the enzyme reaction was terminated by adding 50 μl of 0.5 M sulfuric acid. Absorbance of each well was determined at 490 nm using a microplate reader. Apo B concentration was calculated from a standard curve generated from purified Apo B standard that was run in parallel in the same plate. Inhibition of Apo B secretion by the test compound is calculated taking 0.1% DMSO treated cells as controls.
Measurement of Apo AI was performed similar to that of Apo B, except for diluting the sample 11-fold with a dilution buffer (phosphate buffered saline, pH 7.2 containing 0.5% bovine serum albumin and 0.05% Tween-20).
Apo B secretion inhibitors are identified as compounds that decrease Apo B secretion without affecting the secretion of Apo AI.

ddY-mice [1] = assay: Test 2: Lipids Lowering Effect on ddY-Mice (plasma cholesterol and triglyceride); format: in vivo; conditions: male ddY-mice, oral, 3.2 mg/kg in 0.5% methylcellulose, relative to baseline; for Cholesterol (% of 0 hr) 2 hr: plasma total-cholesterol 2 hours after administration; for Triglyceride (% of 0 hr) 2 hr: plasma triglyceride 2 hours after administration
Experimental: Male ddY-mice were housed in temperature- and humidity-controlled rooms and fed with laboratory chow. The animals were randomized according to their body weight and deprived of food just before the experiment. A blood sample (baseline blood sample) was collected from the retro orbital venous plexus before administration of the test drug, and then the animals were orally dosed with the test drug in a vehicle (aqueous solution of 0.5% methylcellulose). Blood samples were drawn at 2 hours after drug administration for the measurement of cholesterol and triglyceride.
Plasma total-cholesterol and plasma triglyceride were determined by conventional enzyme methods using commercially available kits. The cholesterol CII-Test Wako (Wako Pure Chemical Industries, Ltd.) was used for the measurement of cholesterol, and the triglyceride E-test Wako (Wako Pure Chemical Industries, Ltd.) was used for the measurement of triglyceride.
Lipids lowering effects were shown in percent relative to the baseline level (level at 0 hr).

ddY-mice [2] = assay: Test 3: Lipid Lowering Effect on ddY-Mice (olive oil load, plasma TG elevation); format: in vivo; conditions: male ddY-mice fasted about 16 hours, oral, 0.32 mg/kg in olive oil (10 ml/kg), 2 hours; (TG increase in drug treated group/TG increase in control group)×100
Experimental: Male ddY-mice were housed in temperature- and humidity-controlled rooms and fed with laboratory chow. The animals were randomized according to their body weight and food was deprived about 16 hours before experiment. Baseline blood sample was collected from the retro orbital venous plexus then the animals were orally dosed with drugs in olive oil (10 ml/kg). For control group, 10 ml/kg of olive oil was loaded orally. Blood samples were drawn at 2 hours after drug administration for the measurement of triglyceride (TG) elevation. Plasma TG was determined by conventional enzyme method (The triglyceride E-test Wako).
Lipid lowering effects were shown in percent of the TG increase in drug treated group, relative to the TG increase in control group. Lipid lowering effect (%)=(TG increase in drug treated group/TG increase in control group)×100

| SMILES | inhibition at 0.01 µM (Apo B secretion) [%] | Cholesterol (% of 0 hr) 2 hr (ddY-mice [1]) | Triglyceride (% of 0 hr) 2 hr (ddY-mice [1]) | Lipid lowering effect (%) (ddY-mice [2]) |
| --- | --- | --- | --- | --- |
| Cc1ccc(-c2ccc(F)cc2)c(C(=O)Nc2ccc(NCCc3cccc(N)n3)cc2)c1 [Example 56, N-(4-{[2-(6-amino-2-pyridinyl)ethyl]amino}phenyl)-4′-fluoro-4-methyl-1,1′-biphenyl-2-carboxamide] | 93 | 81 % of 0 hr | 31 % of 0 hr | – |
| O=C(Nc1ccc(NCCc2ccccn2)cc1)C1=C(c2ccc(C(F)(F)F)cc2)CCCCC1 [Example 232, N-(4-{[2-(2-pyridinyl)ethyl]amino}phenyl)-2-[4-(trifluoromethyl)phenyl]-1-cycloheptene-1-carboxamide] | 93 | – | – | 29 |
| Cc1ccc(-c2ccc(Cl)cc2)c(C(=O)Nc2ccc(NCCc3ccccn3)cc2)c1 [Example 31, 4′-chloro-4-methyl-N-(4-{[2-(2-pyridinyl)ethyl]amino}phenyl)-1,1′-biphenyl-2-carboxamide] | 96 | 86 % of 0 hr | 36 % of 0 hr | – |
| Cc1ccc(C(=O)Nc2ccc(NCCc3ccccn3)cc2)c(-c2ccc(F)cc2)c1 [Example 46, 4′-fluoro-5-methyl-N-(4-{[2-(2-pyridinyl)ethyl]amino}phenyl)-1,1′-biphenyl-2-carboxamide] | 94 | 79 % of 0 hr | 19 % of 0 hr | – |
| Cc1ccc(-c2ccc(Cl)cc2)c(C(=O)Nc2ccc(NCCc3cccc(N)n3)cc2)c1 [Example 55, N-(4-{[2-(6-amino-2-pyridinyl)ethyl]amino}phenyl)-4′-chloro-4-methyl-1,1′-biphenyl-2-carboxamide] | 86 | 75 % of 0 hr | 16 % of 0 hr | – |
| Cc1ccc(C(=O)Nc2ccc(NCCc3ccccn3)cc2)c(-c2ccc(C(F)(F)F)cc2)c1 [Example 44, 5-methyl-N-(4-{[2-(2-pyridinyl)ethyl]amino}phenyl)-4′-(trifluoromethyl)-1,1′-biphenyl-2-carboxamide] | 83 | 80 % of 0 hr | 25 % of 0 hr | – |
| N#Cc1cccc(CN2CCN(c3ccc(NC(=O)C4=C(c5ccc(C(F)(F)F)cc5)CCCC4)cn3)CC2)c1 [Example 212, N-{6-[4-(3-cyanobenzyl)-1-piperazinyl]-3-pyridinyl}-2-[4-(trifluoromethyl)phenyl]-1-cyclohexene-1-carboxamide] | 84 | – | – | 55 |
| Cc1ccc(-c2ccc(C)cc2C(=O)Nc2ccc(NCCc3cccc(N)n3)cc2)cc1 [Example 53, N-(4-{[2-(6-amino-2-pyridinyl)ethyl]amino}phenyl)-4,4′-dimethyl-1,1′-biphenyl-2-carboxamide] | 84 | 71 % of 0 hr | 17 % of 0 hr | – |
